Assays:
[1] = Study on pharmacokinetics (PK) in rats; assay type: in vivo, male SD rats; conditions: PO, 5 mg/kg
Experimental: A sample of crystalline form A was administered to male SD rats by intragastric route (PO) to investigate its pharmacokinetic characteristics. The dose was 5 mg/kg, and 0.5% MC (methylcellulose sodium) was used as a solvent to prepare a suspension of crystalline form A. In the administration group, whole blood samples were collected before PO administration (0 h) and at time points of 0.083, 0.17, 0.25, 0.5, 1, 2, 4, 6, 8 and 24 hours after administration. The whole blood samples were anticoagulated with EDTA.K2, and plasma samples were obtained after centrifugation and stored at −80° C. for later testing. In this experiment, there were three animals in each group for parallel testing.
The plasma samples were treated by precipitating protein and then analyzed by LC-MS/MS. Using WinNonlin 6.3 software, the pharmacokinetic parameters was calculated by means of the non-compartmental model, and the results were shown in Table 1.

[2] = High temperature stability test (purity by HPLC, XRPD); assay type: physicochemical; conditions: 60° C.; for Purity: sealed glass bottle
Experimental: (§1) In this experimental example, the chemical stability of crystalline form A was studied by high temperature and high humidity test.
(§2) Method for testing purity: high performance liquid chromatography (Chinese Pharmacopoeia, 2015 Edition, Four General Rules 0512) was used to test purify.
(§3) Chromatographic column: phenyl bonded silica gel was used as filler;
(§4) Mobile phase A: 5 mM ammonium acetate (pH 4.0);
(§5) Mobile phase B: Acetonitrile (containing 0.05% acetic acid);
(§6) Detection wavelength: 230 nm.
(§7) Elution condition: gradient elution.
The crystalline form A was placed in a sealed and clean glass bottle, and then the glass bottle was placed in a 60° C. constant temperature drying oven, and samples were taken on the […] and the 30th day, respectively, to detect impurity contents, and the purity results were shown in Table 2.

[3] = High humidity stability test (purity by HPLC, XRPD); assay type: physicochemical; conditions: 25±2° C., 92.5% RH; for Purity: open dish
Experimental: as §1, §2, §3, §4, §5, §6, §7
The crystalline form A of the compound of Formula I was evenly spread into an open culture dish with a thickness of ≤5 mm, and placed in a constant temperature incubator at room temperature (25±2° C.) and relative humidity of 92.5% RH. […]

PPAR δ = biological target: T1, PPAR δ (Homo sapiens, UniProt Q03181); conditions: statement in words; tests disclosed in WO2019105234A1; cited from earlier work
T1 sequence (Q03181 1-441): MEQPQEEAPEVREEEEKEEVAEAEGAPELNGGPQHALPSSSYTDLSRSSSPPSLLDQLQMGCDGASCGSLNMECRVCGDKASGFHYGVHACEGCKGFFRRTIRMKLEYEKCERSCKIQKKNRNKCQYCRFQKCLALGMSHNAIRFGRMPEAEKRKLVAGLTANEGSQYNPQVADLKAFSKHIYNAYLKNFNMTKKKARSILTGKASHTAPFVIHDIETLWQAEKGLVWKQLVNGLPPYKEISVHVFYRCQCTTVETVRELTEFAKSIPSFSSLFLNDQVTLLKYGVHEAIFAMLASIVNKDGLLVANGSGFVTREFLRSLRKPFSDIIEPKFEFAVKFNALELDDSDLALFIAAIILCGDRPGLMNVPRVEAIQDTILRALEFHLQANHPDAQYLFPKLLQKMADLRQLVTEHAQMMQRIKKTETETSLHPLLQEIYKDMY

HepG2 cells = conditions: statement in words; tests disclosed in WO2019105234A1; cited from earlier work
HEK293 cells = conditions: statement in words; tests disclosed in WO2019105234A1; cited from earlier work
hERG = hERG (Homo sapiens, UniProt Q12809); conditions: statement in words; tests disclosed in WO2019105234A1; cited from earlier work
hERG, sequence (Q12809 whole entry): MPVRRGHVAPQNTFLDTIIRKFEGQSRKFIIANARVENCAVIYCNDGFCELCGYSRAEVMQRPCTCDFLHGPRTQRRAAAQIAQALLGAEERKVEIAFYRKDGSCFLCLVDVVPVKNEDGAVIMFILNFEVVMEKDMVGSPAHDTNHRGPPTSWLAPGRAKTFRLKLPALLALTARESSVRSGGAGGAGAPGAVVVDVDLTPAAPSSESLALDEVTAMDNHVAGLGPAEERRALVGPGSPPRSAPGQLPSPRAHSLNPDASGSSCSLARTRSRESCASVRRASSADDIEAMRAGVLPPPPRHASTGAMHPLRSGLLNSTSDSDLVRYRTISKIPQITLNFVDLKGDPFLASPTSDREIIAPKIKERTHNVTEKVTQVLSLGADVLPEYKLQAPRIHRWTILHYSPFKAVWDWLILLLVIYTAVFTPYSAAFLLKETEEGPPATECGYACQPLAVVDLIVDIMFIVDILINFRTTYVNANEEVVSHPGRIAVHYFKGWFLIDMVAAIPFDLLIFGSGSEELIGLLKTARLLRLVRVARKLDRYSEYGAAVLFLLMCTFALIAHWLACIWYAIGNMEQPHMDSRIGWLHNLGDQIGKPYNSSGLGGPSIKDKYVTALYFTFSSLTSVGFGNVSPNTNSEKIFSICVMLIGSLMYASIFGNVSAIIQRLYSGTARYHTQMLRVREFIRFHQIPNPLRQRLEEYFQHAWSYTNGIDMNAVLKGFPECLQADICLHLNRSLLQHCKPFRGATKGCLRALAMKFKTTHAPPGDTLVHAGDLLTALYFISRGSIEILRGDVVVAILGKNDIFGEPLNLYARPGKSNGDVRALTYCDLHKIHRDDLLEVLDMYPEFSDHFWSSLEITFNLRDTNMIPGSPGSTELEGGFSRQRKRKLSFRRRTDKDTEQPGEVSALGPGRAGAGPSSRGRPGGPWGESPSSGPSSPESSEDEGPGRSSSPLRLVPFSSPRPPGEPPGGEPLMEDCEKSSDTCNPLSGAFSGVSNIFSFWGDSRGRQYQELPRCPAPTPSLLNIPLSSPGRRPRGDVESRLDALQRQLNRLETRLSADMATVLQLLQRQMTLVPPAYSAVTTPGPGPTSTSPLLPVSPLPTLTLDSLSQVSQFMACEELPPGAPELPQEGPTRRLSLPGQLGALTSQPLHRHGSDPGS

[4] = rat, male SD rats, suspension in 0.5% MC, plasma

- exposure in rat plasma [1]: better exposure
- AUC(0-t) [1, 4]: 777 ng·h/mL
- Cmax [1, 4]: 522 ng/mL
- change of crystalline form by XRPD ([2]; after 30 days of storage): did not change
- Purity ([2]; 0th day): 99.51%
- Purity ([2]; 10th day): 99.53%
- Purity ([2]; 30th day): 99.54%
- change of purity under high temperature conditions ([2]; up to 30 days): no significant change
- change of crystalline form by XRPD ([3]; after 30 days of storage): did not change
- Purity ([3]; 0th day): 99.51%
- Purity ([3]; 10th day): 99.53%
- Purity ([3]; 30th day): 99.54%
- change of purity under high humidity conditions ([3]; up to 30 days): no significant change
Compound: COc1nc2ccccc2cc1C(=O)/C=C/c1cc(C)c(OC(C)(C)C(=O)O)c(C)c1 [crystalline form A, (E)-2-(4-(3-(2-methoxyquinolin-3-yl)-3-oxo-1-propen-1-yl)-2,6-dimethylphenoxy)-2-methyl-propionic acid]
- agonistic effect on PPAR δ (PPAR δ): obvious agonistic effect
- toxicity to HepG2 cells (HepG2 cells): low toxicity
- toxicity to HEK293 cells (HEK293 cells): low toxicity
- inhibitory effect on hERG (hERG): no obvious inhibitory effect
